From patent US10596172B2 (Celgene CAR LLC, priority 2008, dated 2020) come the findings set out here.

Test [1] addresses T1, BTK (Homo sapiens (Human), UniProt Q06187). Kind of test: Omnia assay for potency assessment against BTK. The test is classed as biochemical. The note with it: [BTK]=5 nm; read-out: BTK Inhibition. As for the experimental part:
Omnia Assay Protocol for Potency Assessment Against BTK
The modified BTK-optimized reagent conditions for the above protocol are:
[BTK]=5 nm, [ATP]=40 mM, [Y5-Sox]=10 mM (ATP KMapp˜36 mM).

A further test deals with ITK (Homo sapiens (Human), UniProt Q08881). Briefly: Omnia assay for potency assessment against active forms of ITK kinase. The test is classed as biochemical. The note with it: [ITK]=10 nM, [ATP]=25 μM, [Y6-Sox]=10 μM; read-out: ITK Inhibition. As for the experimental part:
[ITK]=10 nM, [ATP]=25 μM, [Y6-Sox]=10 μM (ATP KMapp=33 μM).

Another test has as its target EGFR-WT (Homo sapiens (Human), UniProt P00533). Briefly: Omnia assay for potency assessment against EGFR (WT). The note with it: wild-type EGFR; read-out: EGFR Wild Type Inhibition. It is filed as biochemical.
Test [2] addresses T1, BTK. Kind of test: Washout experiment with Ramos cells. It is filed as cell-based. The note with it: 100 nM compound 1 hour, then washout. As for the experimental part: Ramos cells were serum starved for one hour in RPMI media +1% glutamine at 37° C. After starvation, Ramos cells were treated with 100 nM compound diluted in serum free RPMI media for 1 hour. After compound treatment, the media was removed and cells were washed with compound-free media. Subsequently, Ramos cells were washed every 2 hours and resuspended in fresh compound-free media. Cells were collected at specified timepoints, treated with 1 ug anti-human IgM (Southern Biotech cat #2022-01) for 10 minutes on ice to induce BCR signaling and then washed in PBS. Ramos cells were then lysed in Cell Extraction Buffer (Invitrogen FNN0011) supplemented with Roche complete protease inhibitor tablets (Roche 11697498001) and phosphatase inhibitors (Roche 04 906 837 001) and 18 ug total protein lysate was loaded in each lane. Inhibition of BTK kinase activity was assayed by measuring its substrate (PLCγ2) phosphorylation by western blot with phospho-specific antibodies from Cell Signaling Technologies cat #3871. The results of this experiment with compounds I-2, I-4 and I-7 are depicted in FIGS. 1, 2 and 3.

Test [3] concerns B cell lymphoma cell lines. Kind of test: B cell lymphoma proliferation assay. It is filed as cell-based.
A further test has as its target TEC kinase (Homo sapiens (Human), UniProt P42680). Kind of test: Mass spectrometry for TEC kinase (tryptic digest). The test is classed as binding. The note with it: 3 hrs at 10x excess. As to the method:
TEC kinase (45 pmols; Invitrogen) was incubated with (I-2) (450 pmols) for 3 hrs at 10× excess prior to tryptic digestion. Iodoacetamide was used as the alkylating agent after compound incubation. […] For tryptic digests a 5 ul aliquot (7.5 pmols) was diluted with 15 ul of 0.1% TFA prior to micro C18 Zip Tipping directly onto the MALDI target using alpha cyano-4-hydroxy cinnamic acid as the matrix (5 mg/ml in 0.1% TFA:Acetonitrile 50:50).
As depicted in FIG. 6, the expected peptide ([…]) to be modified was immediately evident after reaction with I-2 (MI mass of 359.17 Da) at MH+ of 1294.72. The peptide was also quite evident in the control sample as modified by Iodacetamide at MH+ of 992.56. […] There was no evidence of other modified peptides.
For tryptic digests the instrument was set in Reflectron mode with a pulsed extraction setting of 2200. Calibration was done using the Laser Biolabs Pep Mix standard ([…], 1296.69, 1672.92, 2093.09, 2465.20). For CID/PSD analysis the peptide was selected using cursors to set ion gate timing and fragmentation occurred at a laser power about 20% higher and He was used as the collision gas for CID. Calibration for fragments was done using the P14R fragmentation calibration for the Curved field Reflectron.
TEC kinase (45 pmols; Invitrogen) was incubated with (I-4) (450 pmols) for 3 hrs at 10× excess prior to tryptic digestion. Iodoacetamide was used as the alkylating agent after compound incubation. […] For tryptic digests a 5 ul aliquot (7.5 pmols) was diluted with 15 ul of 0.1% TFA prior to micro C18 Zip Tipping directly onto the MALDI target using alpha cyano-4-hydroxy cinnamic acid as the matrix (5 mg/ml in 0.1% TFA:Acetonitrile 50:50).
As depicted in FIG. 7, the expected peptide ([…]) to be modified was immediately evident at MH+ of 1355.72. This is the mass to be expected when compound I-4, with an adduct mass of 420.21, is added to the peptide mass of 935.51. The peptide was also quite evident in the control sample as modified by Iodacetamide at MH^+ of 992.56. […] There was no evidence of other modified peptides. […]

For another test, the target named is JAK3 (Homo sapiens (Human), UniProt P52333). Briefly: Omnia assay for potency assessment against the active form of JAK3. The test is classed as biochemical. The note with it: read-out: JAK3 Inhibition.
Test [4] concerns the target T1, BTK. Kind of test: BTK Ramos cellular assay (phosphorylation of BTK substrate PLCγ2). It is filed as cell-based. The note with it: Ramos cells, compound 1 hour, anti-human IgM stimulation, read-out: BTK Inhibition (BTK Ramos Cellular Inhibition Data). As for the experimental part:
Ramos cells were grown in suspension in T225 flasks, spun down, resuspended in 50 ml serum-free media and incubated for 1 hour. […] Ramos cells were incubated with compound for 1 hour, washed again and resuspended in 100 ul serum-free media. Cells were then stimulated with 1 μg of goat F(ab′)2 Anti-Human IgM and incubated on ice for 10 minutes to activate B cell receptor signaling pathways. After 10 minutes, the cells were washed once with PBS and then lysed on ice with Invitrogen Cell Extraction buffer. 16 μg total protein from lysates were loaded on gel and blots were probed for phosphorylation of the BTK substrate PLCγ2.

A further test deals with Human naïve B cells. Briefly: Human primary B cell proliferation assay. The note with it: 5 μg/ml α-IgM 72 hours, 3H-thymidine incorporation. The test is classed as cell-based. As for the experimental part: Human naïve B cells were purified from 100 mL whole blood using a MACS purification kit designed to isolate CD19+, IgD+ cells by negative selection. Purified naïve B cells were resuspended in RPMI complete and stimulated with 5 μg/ml α-IgM for 72 hours. ^3H-Thymidine was included in the culture media for the final 16 h, cells were harvested and ^3H incorporation measured. Inhibition of B cell proliferation correlates with inhibition of BTK substrate phosphorylation after α-IgM stimulation.

For test [5], the target named is BTK (Rattus norvegicus, UniProt Q5S255). Kind of test: BTK occupancy from in vivo samples by ELISA. The note with it: po, rats dosed orally 30 mg/kg. As to the method: All samples were prepared with equal concentrations of Biorad lysis buffer (Hercules, Calif., USA), 0.5% bovine serum albumin in PBS with 0.05% Tween-20 to give a final concentration of 1 μM I-215. Samples were incubated in a mixing plate for 1 hr at room temperature while shaking to allow probe compound I-215 to bind to free BTK. After incubation with I-215, samples were added to a washed, streptavidin-coated ELISA plate (Pierce, Rockford, Ill., USA) and incubated for 1 hr at room temperature while shaking. The plate was then washed with PBS containing 0.05% Tween-20 using an automatic plate washer. Anti-BTK antibody was prepared at 1:1000 dilution in 0.5% BSA in PBS (0.05% Tween-20) and added to the ELISA plate. The plate was incubated for 1 hr at room temperature while shaking. The plate was washed as described above and the secondary HRP antibody was prepared at 1:5000 dilution in 0.5% BSA in PBS (0.05% Tween-20). The plate was incubated and washed as described above. TMB was added to the plate, and OD650 was monitored until reaching 1 OD unit. The reaction was then stopped with addition of H2SO4. The plate was analyzed using Gen 5 software, and a 4 Parameter Logistic curve was employed to quantitate samples. Recombinant BTK (Invitrogen, Carlsbad, Calif., USA) was used for the standard curve.
Rats were dosed orally with 30 mg/kg of compound and spleens were harvested either 2 or 24 hours after compound treatment. Rat spleens were disrupted between two microscope slides coated with frosted glass to recover single cell suspensions. Red blood cells were lysed by incubating with RBC lysis buffer (Boston BioProducts) for 2 minutes at room temperature, the cells were then resuspended in RPMI complete media and pelleted by centrifugation. Rat B cells were isolated by positive selection with B220+ antibody-magnetic bead conjugates, purified by MACS column and lysed in Bio-Rad lysis buffer at a concentration of 10 million cells/100 μl. Lysates were analyzed employing the biotinylated probe compound I-215 in an ELISA protocol as described in detail in Example 278.

[6] abbreviates: Homo sapiens, DOHH-2, DOHH2 B cell lymphoma cell line, read-out: EC50 (μM) DOHH2.

Like-named read-outs stand apart in the source and are kept apart here.

ITK, sequence (Q08881 whole entry): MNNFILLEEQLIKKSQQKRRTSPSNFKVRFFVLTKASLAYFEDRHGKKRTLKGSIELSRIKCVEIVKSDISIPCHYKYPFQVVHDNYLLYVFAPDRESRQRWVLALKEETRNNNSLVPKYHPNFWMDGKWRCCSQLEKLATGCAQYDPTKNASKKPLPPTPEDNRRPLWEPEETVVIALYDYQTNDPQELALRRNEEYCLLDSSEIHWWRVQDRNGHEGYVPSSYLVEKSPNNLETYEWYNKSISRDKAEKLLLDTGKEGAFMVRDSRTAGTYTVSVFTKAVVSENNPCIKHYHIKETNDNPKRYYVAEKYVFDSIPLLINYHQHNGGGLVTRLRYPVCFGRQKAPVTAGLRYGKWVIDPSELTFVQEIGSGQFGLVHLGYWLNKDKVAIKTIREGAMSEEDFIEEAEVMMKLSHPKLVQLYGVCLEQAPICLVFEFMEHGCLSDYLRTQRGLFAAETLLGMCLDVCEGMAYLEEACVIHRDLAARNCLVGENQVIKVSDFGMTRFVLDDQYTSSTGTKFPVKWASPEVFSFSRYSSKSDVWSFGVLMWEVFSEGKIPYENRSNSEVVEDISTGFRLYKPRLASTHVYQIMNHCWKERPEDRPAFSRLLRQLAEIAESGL
T1 sequence (Q06187 whole entry): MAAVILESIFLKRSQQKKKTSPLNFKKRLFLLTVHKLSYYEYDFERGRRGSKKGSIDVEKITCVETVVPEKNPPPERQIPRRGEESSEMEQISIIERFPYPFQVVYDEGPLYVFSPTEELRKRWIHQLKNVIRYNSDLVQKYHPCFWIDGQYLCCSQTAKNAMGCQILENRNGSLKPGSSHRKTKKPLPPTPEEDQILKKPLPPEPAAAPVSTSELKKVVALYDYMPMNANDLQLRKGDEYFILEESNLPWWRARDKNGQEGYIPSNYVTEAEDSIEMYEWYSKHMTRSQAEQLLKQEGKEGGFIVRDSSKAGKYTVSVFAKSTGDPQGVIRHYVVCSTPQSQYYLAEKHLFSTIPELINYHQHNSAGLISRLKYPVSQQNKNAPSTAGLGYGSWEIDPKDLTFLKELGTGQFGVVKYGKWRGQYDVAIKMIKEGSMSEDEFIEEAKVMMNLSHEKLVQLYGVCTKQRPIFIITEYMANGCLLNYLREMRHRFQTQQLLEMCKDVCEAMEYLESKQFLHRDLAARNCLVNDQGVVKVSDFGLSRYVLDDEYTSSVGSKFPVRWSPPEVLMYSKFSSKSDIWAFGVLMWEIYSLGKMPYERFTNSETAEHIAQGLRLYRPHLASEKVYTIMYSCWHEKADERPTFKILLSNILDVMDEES
BTK (Rattus norvegicus, UniProt Q5S255), sequence (Q5S255 1-660): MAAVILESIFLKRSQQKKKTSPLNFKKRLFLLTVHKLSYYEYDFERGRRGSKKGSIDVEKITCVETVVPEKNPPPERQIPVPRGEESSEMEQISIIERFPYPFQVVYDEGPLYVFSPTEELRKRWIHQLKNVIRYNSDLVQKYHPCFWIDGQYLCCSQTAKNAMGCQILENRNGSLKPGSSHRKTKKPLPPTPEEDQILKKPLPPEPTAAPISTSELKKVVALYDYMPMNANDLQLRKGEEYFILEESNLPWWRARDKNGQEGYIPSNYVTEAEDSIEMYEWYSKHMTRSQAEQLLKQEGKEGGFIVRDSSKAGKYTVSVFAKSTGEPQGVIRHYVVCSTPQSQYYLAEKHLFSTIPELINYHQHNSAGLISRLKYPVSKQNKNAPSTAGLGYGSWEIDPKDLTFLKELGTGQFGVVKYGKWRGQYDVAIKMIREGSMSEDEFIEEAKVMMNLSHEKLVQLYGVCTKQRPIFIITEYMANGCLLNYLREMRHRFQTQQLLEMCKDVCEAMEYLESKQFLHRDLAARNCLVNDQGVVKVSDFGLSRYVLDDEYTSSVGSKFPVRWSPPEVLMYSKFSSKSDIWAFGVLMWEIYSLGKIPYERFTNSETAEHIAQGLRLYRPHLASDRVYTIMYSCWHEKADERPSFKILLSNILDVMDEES
JAK3, sequence (P52333 whole entry): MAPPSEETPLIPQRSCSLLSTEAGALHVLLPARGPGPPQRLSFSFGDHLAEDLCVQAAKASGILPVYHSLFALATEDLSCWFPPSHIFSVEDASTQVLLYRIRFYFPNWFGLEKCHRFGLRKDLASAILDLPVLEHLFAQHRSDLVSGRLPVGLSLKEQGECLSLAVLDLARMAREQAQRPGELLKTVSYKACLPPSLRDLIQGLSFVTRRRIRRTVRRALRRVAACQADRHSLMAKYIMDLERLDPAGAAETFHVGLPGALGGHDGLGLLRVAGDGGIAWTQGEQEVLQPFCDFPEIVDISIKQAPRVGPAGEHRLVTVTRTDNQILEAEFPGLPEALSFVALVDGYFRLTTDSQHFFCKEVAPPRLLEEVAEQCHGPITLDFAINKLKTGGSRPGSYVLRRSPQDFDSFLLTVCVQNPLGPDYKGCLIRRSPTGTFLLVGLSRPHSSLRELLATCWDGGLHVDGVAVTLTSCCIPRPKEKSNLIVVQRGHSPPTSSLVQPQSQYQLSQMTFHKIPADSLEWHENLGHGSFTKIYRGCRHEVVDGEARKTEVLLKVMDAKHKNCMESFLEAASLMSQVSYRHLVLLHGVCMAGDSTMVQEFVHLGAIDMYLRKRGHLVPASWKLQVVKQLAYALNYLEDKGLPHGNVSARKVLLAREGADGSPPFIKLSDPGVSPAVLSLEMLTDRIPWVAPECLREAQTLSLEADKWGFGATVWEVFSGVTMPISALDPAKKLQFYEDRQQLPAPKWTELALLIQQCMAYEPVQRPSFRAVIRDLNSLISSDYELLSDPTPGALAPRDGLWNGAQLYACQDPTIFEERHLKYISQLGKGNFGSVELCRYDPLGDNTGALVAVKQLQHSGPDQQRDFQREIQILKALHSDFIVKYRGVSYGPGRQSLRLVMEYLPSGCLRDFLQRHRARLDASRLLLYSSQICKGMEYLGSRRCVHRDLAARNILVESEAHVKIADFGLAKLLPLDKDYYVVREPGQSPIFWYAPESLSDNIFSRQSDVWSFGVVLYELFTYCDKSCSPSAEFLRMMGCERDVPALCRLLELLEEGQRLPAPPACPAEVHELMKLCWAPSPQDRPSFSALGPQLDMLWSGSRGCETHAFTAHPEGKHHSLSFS
TEC kinase, sequence (P42680 whole entry): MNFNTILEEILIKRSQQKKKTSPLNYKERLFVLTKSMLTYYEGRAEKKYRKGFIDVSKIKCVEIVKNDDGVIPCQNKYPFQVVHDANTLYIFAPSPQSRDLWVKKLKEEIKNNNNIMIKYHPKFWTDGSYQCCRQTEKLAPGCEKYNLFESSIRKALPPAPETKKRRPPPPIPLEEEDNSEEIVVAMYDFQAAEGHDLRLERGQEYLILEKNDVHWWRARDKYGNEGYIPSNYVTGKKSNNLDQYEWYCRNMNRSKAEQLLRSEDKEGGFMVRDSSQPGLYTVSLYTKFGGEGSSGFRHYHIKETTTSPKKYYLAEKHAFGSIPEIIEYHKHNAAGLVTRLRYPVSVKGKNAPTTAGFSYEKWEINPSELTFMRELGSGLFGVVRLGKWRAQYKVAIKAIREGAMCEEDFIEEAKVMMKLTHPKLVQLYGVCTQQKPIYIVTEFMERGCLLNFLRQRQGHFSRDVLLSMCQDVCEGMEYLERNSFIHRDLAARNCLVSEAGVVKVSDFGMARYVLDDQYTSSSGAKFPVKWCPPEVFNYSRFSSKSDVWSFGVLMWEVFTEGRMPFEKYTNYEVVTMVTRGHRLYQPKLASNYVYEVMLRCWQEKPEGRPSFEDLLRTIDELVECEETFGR

Regarding “4-(3-acrylamidophenoxy)-2-(3-methoxyphenylamino)-pyrimidine-5-carboxylic acid phenylamide [Compound I-200]”, the results for the IC50 at BTK [1], at ITK and on EGFR-WT were less than 10 nM, greater than 10000 nM and less than 10 nM, respectively.
Turning to `C=CC(=O)Nc1cccc(Nc2ncc(C)c(Nc3cccc(C)c3)n2)c1` [Compound I-2, N-(3-(5-methyl-4-(m-tolylamino)pyrimidin-2-ylamino)phenyl)acrylamide], the “BTK Inhibition Type” value on BTK [2] is recorded as “irreversible”. The EC50 in test [3] (setting [6]) is 0.1 to 1 µM. Besides, the “covalent modification of TEC kinase peptide GCLLNFLR (Cys449) by mass spectrometry” value at TEC kinase was “reaction was complete”. For the same compound, the IC50 at JAK3 is less than 10 nM.
Regarding `C=CC(=O)Nc1cccc(Oc2nc(Nc3cccc(OC)c3)ncc2C(=O)NC2CC2)c1` [Compound I-177, 4-(3-acrylamidophenoxy)-2-(3-methoxyphenylamino)-pyrimidine-5-carboxylic Acid Cyclopropylamide], the IC50 was less than 10 nM at BTK [1], 100 to 1000 nM at BTK [4], 10 to 100 nM at ITK and less than 10 nM on EGFR-WT.
For `C=CC(=O)Nc1cccc(Oc2nc(Nc3cccc(OC)c3)ncc2C(N)=O)c1` [Compound I-178, 4-(3-acrylamidophenoxy)-2-(3-methoxyphenylamino)pyrimidine-5-carboxylic Acid Amide], the IC50 is less than 10 nM on BTK [1], 10 to 100 nM on BTK [4], 10 to 100 nM at ITK and less than 10 nM at EGFR-WT. Also, the EC50 was greater than 10 µM in test [3] (DHL4 B cell lymphoma cell line, read-out: EC50 (μM) DHL4); 1 to 10 µM in test [3] (setting [6]); greater than 10 µM in [3] (Homo sapiens, WSUDLCL2, WSU-DLCL2 B cell lymphoma cell line, read-out: EC50 (μM) WSU-DLCL2).
`C=CC(=O)N1CCC[C@@H](Oc2nc(Nc3ccc(OC)nc3)ncc2F)C1` [Compound I-180, (R)-1-(3-(5-fluoro-2-(6-methoxypyridin-3-ylamino)pyrimidin-4-yloxy)piperidin-1-yl)prop-2-en-1-one]: the IC50 at BTK [1] was less than 10 nM; at BTK [4], 100 to 1000 nM; on ITK, 100 to 1000 nM; at EGFR-WT, 100 to 1000 nM.
On to `C=CC(=O)N1CCC[C@@H](Oc2nc(Nc3cccc(OC)c3)ncc2F)C1` [Compound I-190, (R)-1-(3-(5-fluoro-2-(3-methoxyphenylamino)pyrimidin-4-yloxy)piperidin-1-yl)prop-2-en-1-one], for which the half-maximal effective concentration (EC50) is 10 to 100 nM in the test on Human naïve B cells and greater than 10 µM in [3] (setting [6]). Besides, the receptor occupancy at 30 mg/kg is 18% on BTK [5] (spleen B cells harvested 2 hours after treatment, read-out: % BTK Occupancy 2 h) and 13% at BTK [5] (spleen B cells harvested 24 hours after treatment, read-out: % BTK Occupancy 24 h).
